In patent US20250188457A1, “COMPOSITIONS AND METHODS FOR THE TREATMENT OF GLIOBLASTOMA BY INHIBITION OF THE TFPI2-CD51-STAT6 SIGNALING AXIS” (Northwestern University, priority 2023, published 2025):

What was measured:
[1] = system: JURKAT T cells cocultured with PrhMG; assay: Human microglia-T cell co-culture, flow cytometry; format: cell-based; settings: TFPI2 recombinant protein 20 ng/ml; AS1517499 25 nM
Experimental: For membrane protein staining, the single-cell suspensions were washed with PBS and then incubated with fixable viability dye (Invitrogen, #5211229035) on ice for 10 min. Following washing with PBS, cells were incubated with the anti-CD16/CD32 cocktail (BioLegend, #103132) in 2% BSA PBS to block Fc receptors for 30 min on ice. Different antibody combinations, including Percp/Cy5.5 anti-mouse CD45 (BioLegend, #103132), AF488 anti-mouse CD3 (BioLegend, #100210), BV421 anti-mouse CX3CR1 (BD Bioscience, #567531), BUV395 anti-mouse CD4 (BD Bioscience, #740208), BV711 anti-mouse CD8 (BioLegend, #100747), PE/Cy7 anti-mouse/human CD11b (BioLegend, #101216), PE anti-mouse CD68 (BD Bioscience, #566386), PE anti-mouse PD1 (BioLegend, #135205), AF647 anti-mouse CD206 (BD Bioscience, #565250), AF647 anti-human CD206 (BioLegend, #321116), PE anti-human CD69 (BioLegend, #310906), PE/Cy7 anti-mouse CD69 (BioLegend, #104512), and BV650 anti-human HLA-DR (BioLegend, #307650) were added to cell suspensions for 30 min on ice. […] Samples were read in BD FACSymphony flow cytometer and analyzed in FlowJo v10.8.1. […] Then cell suspensions were rewashed in permeabilization buffer and read in BD FACSymphony flow cytometer.

[2] = system: 005 GSC and CT2A tumors; assay: Survival of C57BL/6 mice implanted with 005 GSCs or CT2A cells; format: in vivo, mouse; settings: anti-PD1 10 mg/kg i.p. on days 11, 14 and 17, MK-0429 30 mg/kg or AS1517499 10 mg/kg i.p. every other day
Experimental: Female C57BL/6 (#0000664), nude mice (#007850), and B6.12952(C)-Stat6tm1Gru/J mice (STAT6-KO; #005977) at 6 weeks of age were purchased from the Jackson Laboratory. Mice were grouped by 5 animals and maintained in a pathogen-free IVC System (San Diego, CA) for a week before the experiment. All animal experiments were performed with the approval of the Institutional Animal Care and Use Committee (IACUC) at Northwestern University. The intracranial xenograft tumor models were established (Refs. 11, 61; incorporated by reference in their entireties). Ketamine (100 mg/kg) and xylazine (20 mg/kg) were used for anesthetizing mice through intraperitoneal injection. Then a dental drill was used to open a small hole in the skull 1.2 mm anterior and 3.0 mm lateral to the bregma. A total volume of […] cells in FBS-free DMEM was injected into the right caudate nucleus 3 mm below the surface of the brain using a […] Hamilton syringe with an unbeveled 30-gauge needle. Total three doses of 20 mg/kg meloxicam were administrated before and after surgery through subcutaneous injection. After cancer cell implantation, mice were monitored for recording survival. Mice with neurological deficits or moribund appearance were sacrificed. Following the transcardiac perfusion with PBS and 4% paraformaldehyde (PFA), brains were removed and fixed in 4% PFA, and were processed for paraffin-embedded blocks or cryosectioning.

## NC(=O)c1cnc(NCCc2ccc(O)c(Cl)c2)nc1NCc1ccccc1 [AS1517499]
[1]
  suppression of JURKAT T cell viability and activation by TFPI2-polarized microglia: prevented
[2]
  survival of mice bearing 005 GSC and CT2A tumors, combination with anti-PD1 therapy: synergized
